Results reported in ChEMBL document CHEMBL5465560, “Selectivity Literature for EUbOPEN Chemogenomic Library” (2024).

How the values were obtained:
[1] = target: Sodium-dependent noradrenaline transporter (Homo sapiens, UniProt P23975); assay: Selectivity interaction (Panel of non-epigenetic targets (kinases, GPCRs, ion channels, and transporters, Eurofins) ) EUB0000271b SLC6A2; settings: at 1 µM
[2] = target: Ribosomal protein S6 kinase beta-1 (Homo sapiens, UniProt P23443); assay: Selectivity interaction (Ambit KINOMEscan and KiNATiv profiling in Jurkat cells) EUB0000090b RPS6KB1; type: cell-based; settings: at 1 µM
[3] = target: T1, Serine/threonine-protein kinase PLK4 (Homo sapiens) (UniProt O00444); assay: Selectivity interaction (Kinase panel (DSF assay)) EUB0001559a PLK4
T1 sequence (whole entry): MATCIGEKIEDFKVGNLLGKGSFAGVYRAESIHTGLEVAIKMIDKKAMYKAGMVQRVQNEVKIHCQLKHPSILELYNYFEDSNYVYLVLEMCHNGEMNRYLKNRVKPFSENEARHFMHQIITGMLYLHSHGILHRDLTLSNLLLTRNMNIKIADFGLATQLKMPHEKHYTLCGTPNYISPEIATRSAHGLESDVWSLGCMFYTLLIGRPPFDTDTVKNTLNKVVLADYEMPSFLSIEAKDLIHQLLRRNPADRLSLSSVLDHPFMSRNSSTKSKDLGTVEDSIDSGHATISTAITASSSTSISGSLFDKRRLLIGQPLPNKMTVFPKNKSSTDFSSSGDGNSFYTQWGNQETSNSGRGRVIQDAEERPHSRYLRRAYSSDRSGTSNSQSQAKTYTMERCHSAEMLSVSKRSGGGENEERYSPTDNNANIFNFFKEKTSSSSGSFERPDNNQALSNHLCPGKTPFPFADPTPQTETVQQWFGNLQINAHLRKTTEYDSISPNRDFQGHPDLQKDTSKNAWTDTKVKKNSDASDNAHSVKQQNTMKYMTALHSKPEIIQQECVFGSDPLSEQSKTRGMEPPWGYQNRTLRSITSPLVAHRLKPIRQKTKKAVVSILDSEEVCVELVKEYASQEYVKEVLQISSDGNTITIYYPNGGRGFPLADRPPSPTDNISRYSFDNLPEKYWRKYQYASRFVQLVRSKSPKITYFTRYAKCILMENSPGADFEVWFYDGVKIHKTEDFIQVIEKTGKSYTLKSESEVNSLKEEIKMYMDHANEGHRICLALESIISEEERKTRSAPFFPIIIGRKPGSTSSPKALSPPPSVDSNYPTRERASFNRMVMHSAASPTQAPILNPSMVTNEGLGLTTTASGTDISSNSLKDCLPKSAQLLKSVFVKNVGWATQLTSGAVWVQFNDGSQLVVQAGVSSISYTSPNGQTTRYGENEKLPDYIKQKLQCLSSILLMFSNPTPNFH

[4] = target: Tyrosine-protein kinase Fgr (Homo sapiens) (UniProt P09769); assay: Selectivity interaction (KinomeScan (DiscoverX)) EUB0001079a FGR; settings: at 1 µM
[5] = target: 5'-AMP-activated protein kinase catalytic subunit alpha-2 (Homo sapiens) (UniProt P54646); assay: Selectivity interaction (KinomeScan (DiscoverX)) EUB0000607a PRKAA2; settings: at 10 µM
[6] = target: Ribosomal protein S6 kinase beta-2 (Homo sapiens) (UniProt Q9UBS0); assay: Selectivity interaction (ActivX KiNativ screen (ex vivo kinase selectivity in human PBMCs)) EUB0001619a RPS6KB2; type: cell-based; settings: PBMC, at 1 µM
[7] = target: T2, Tyrosine-protein kinase receptor TYRO3 (Homo sapiens) (UniProt Q06418); settings: at 10 µM
T2 sequence (whole entry): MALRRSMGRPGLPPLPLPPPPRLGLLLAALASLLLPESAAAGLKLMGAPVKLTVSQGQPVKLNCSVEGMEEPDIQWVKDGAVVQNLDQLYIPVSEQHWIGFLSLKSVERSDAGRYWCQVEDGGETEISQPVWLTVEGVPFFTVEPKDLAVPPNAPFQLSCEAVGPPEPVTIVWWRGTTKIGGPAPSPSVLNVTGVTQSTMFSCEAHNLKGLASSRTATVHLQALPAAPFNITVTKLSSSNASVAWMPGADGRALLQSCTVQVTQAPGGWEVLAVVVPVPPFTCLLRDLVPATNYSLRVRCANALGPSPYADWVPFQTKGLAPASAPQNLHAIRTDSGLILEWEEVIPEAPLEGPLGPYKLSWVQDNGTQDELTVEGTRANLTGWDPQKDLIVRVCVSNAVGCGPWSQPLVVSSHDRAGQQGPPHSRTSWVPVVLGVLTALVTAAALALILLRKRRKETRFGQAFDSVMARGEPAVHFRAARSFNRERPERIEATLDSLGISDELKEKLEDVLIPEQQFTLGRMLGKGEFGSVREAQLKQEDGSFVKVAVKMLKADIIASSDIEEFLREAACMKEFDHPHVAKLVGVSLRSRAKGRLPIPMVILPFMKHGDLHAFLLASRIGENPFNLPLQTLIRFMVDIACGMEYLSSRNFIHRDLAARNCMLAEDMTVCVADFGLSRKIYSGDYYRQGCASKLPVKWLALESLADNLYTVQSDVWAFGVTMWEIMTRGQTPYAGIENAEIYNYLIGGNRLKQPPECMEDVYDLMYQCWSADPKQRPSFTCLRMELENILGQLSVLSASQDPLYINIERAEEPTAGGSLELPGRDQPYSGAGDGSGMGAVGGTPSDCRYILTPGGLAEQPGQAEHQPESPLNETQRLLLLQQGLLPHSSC

[8] = target: Serine/threonine-protein kinase WNK2 (Homo sapiens) (UniProt Q9Y3S1); assay: Selectivity interaction (ActivX KiNativ screen (kinase selectivity in THP-1 cell lysates)) EUB0000639a WNK2; type: subcellular; settings: lysate, at 0.04 µM
[9] = target: Angiopoietin-1 receptor (Homo sapiens) (UniProt Q02763); assay: Selectivity interaction (Kinase screening (Nanosyn)) EUB0000604a TEK
Sequence of Angiopoietin-1 receptor (Homo sapiens) (Q02763 whole entry): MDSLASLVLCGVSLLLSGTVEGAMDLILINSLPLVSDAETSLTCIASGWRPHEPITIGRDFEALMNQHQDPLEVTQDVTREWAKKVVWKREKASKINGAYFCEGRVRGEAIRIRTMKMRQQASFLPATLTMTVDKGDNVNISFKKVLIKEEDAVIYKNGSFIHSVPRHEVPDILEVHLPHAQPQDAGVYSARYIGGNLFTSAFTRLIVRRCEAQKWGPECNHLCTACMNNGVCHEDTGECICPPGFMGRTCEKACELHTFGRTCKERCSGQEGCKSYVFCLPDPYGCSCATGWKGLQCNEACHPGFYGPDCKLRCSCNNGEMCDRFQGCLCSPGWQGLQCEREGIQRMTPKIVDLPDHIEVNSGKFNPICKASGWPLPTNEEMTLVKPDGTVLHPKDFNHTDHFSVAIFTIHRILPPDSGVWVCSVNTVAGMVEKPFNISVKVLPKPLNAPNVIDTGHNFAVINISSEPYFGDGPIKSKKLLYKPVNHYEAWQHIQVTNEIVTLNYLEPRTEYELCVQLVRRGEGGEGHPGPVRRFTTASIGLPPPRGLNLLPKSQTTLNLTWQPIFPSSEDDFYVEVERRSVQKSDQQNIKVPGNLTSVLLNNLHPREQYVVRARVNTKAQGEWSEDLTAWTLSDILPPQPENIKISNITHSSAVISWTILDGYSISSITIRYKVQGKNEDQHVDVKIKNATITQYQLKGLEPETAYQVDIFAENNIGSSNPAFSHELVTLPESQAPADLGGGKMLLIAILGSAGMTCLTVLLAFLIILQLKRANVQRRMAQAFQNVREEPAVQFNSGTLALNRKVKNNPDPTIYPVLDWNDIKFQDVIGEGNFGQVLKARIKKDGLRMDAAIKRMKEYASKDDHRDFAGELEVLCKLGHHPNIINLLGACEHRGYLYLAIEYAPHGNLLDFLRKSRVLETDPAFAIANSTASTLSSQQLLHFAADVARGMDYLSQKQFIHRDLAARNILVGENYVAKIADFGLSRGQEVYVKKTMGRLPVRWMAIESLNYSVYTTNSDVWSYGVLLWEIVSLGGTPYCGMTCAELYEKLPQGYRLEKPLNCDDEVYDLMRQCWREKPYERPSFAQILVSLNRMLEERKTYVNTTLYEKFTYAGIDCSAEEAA

Sequence of Ribosomal protein S6 kinase beta-2 (Homo sapiens) (Q9UBS0 whole entry): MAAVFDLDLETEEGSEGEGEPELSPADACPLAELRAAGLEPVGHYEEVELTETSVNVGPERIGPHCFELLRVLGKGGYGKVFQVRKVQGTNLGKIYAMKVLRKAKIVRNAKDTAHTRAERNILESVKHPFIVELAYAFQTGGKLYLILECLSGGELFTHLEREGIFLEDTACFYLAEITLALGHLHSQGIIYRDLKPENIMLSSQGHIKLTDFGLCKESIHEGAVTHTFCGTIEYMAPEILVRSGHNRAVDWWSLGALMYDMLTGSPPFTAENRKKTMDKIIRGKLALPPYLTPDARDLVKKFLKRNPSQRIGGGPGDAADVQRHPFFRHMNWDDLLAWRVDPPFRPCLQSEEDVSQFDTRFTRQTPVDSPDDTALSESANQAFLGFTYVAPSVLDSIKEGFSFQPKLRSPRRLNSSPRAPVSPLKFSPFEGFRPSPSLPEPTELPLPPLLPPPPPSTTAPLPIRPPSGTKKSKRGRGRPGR
Sequence of 5'-AMP-activated protein kinase catalytic subunit alpha-2 (Homo sapiens) (P54646 whole entry, looked up): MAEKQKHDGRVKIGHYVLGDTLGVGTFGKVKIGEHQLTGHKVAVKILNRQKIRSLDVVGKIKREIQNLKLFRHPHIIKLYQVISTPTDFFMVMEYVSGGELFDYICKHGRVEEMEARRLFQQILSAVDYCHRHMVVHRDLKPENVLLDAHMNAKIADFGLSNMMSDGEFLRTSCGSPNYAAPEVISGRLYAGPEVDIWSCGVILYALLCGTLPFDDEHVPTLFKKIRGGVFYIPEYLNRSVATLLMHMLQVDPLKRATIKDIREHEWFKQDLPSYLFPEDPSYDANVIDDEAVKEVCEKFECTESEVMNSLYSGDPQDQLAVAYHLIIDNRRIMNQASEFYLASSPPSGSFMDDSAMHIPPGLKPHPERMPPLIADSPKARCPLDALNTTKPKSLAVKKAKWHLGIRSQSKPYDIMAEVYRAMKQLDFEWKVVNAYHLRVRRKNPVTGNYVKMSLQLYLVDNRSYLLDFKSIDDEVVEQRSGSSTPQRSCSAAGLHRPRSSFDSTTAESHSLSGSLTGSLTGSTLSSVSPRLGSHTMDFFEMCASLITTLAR
Sequence of Ribosomal protein S6 kinase beta-1 (P23443 whole entry, looked up): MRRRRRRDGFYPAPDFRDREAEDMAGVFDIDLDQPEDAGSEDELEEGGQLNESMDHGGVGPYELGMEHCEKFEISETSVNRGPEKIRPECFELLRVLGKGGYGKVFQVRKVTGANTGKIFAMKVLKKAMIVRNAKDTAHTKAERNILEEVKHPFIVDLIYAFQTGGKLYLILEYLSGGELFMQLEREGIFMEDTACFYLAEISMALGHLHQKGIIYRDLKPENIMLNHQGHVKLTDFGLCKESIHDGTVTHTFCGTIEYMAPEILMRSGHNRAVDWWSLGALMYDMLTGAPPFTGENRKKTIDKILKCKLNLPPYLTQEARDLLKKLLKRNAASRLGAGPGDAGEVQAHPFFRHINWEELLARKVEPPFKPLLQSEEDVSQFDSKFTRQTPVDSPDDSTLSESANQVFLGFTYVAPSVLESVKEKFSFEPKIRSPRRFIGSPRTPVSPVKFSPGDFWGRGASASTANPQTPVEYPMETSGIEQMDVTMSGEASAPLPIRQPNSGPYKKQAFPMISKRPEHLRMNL
Sequence of Serine/threonine-protein kinase WNK2 (Homo sapiens) (Q9Y3S1 whole entry): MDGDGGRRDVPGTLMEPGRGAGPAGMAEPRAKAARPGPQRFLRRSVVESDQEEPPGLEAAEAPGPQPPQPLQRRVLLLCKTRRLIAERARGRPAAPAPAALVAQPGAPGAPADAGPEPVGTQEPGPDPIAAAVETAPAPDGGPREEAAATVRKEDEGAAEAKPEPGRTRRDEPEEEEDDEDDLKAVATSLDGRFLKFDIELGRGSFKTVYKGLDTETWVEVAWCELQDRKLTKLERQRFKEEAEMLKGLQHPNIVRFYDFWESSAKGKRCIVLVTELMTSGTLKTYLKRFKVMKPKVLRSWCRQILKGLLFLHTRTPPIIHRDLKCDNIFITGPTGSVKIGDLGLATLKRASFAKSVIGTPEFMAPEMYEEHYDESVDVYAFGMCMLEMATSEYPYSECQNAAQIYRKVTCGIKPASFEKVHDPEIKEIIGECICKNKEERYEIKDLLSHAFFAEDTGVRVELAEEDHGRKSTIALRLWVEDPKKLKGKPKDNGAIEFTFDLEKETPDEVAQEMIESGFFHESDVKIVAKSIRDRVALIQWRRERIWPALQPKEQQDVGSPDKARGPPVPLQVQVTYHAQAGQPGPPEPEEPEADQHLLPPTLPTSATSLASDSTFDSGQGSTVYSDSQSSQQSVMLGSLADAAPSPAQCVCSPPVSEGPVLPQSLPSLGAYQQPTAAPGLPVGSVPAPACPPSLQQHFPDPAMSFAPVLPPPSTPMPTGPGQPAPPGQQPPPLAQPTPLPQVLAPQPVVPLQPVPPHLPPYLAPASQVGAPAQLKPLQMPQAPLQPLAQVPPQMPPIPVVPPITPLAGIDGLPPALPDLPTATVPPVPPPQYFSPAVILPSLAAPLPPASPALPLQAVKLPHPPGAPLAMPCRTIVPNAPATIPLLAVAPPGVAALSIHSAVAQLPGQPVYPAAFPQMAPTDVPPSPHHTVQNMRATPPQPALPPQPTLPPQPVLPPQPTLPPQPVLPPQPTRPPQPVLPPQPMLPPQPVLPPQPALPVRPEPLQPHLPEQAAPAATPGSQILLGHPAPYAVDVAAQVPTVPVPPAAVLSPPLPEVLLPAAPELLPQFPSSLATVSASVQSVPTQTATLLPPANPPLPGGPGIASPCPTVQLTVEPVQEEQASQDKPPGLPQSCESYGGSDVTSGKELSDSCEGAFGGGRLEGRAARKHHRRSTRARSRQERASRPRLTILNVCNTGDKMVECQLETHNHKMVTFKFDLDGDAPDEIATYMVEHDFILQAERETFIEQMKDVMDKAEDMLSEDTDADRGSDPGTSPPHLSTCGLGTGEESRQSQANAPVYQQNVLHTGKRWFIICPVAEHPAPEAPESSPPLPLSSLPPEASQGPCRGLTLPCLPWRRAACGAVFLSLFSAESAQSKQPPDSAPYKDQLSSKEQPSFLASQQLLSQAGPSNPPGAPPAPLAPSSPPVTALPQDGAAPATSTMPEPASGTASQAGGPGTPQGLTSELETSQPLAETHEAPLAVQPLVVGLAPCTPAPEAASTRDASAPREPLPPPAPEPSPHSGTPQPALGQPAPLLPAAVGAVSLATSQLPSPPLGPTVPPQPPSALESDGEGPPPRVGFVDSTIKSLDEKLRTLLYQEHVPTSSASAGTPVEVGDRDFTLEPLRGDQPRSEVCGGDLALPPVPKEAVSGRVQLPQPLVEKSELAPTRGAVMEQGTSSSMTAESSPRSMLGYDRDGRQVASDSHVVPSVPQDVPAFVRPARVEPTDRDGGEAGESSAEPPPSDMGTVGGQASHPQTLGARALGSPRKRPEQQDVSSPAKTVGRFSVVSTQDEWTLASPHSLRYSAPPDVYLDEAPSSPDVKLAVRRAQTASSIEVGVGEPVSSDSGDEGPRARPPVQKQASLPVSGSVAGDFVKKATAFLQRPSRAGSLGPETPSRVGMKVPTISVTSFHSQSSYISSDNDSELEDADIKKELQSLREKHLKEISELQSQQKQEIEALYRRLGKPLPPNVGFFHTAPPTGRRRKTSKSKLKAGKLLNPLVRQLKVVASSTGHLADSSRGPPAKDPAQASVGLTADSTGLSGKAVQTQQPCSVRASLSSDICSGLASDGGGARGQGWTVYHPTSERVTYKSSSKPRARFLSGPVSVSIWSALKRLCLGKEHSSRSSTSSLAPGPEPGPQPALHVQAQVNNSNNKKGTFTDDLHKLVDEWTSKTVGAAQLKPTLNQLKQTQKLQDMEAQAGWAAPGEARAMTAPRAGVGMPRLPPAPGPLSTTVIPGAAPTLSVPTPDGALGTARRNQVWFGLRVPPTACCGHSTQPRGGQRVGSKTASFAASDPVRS

Which % of inhibition [1] does the source give for `Cc1cc(C)cc([C@@H]2c3cc(C)ccc3NC(=O)CN2C(=O)c2ccc(Br)s2)c1` here?
The % of inhibition was -4%.

How did the % of control [2] turn out when `CN(C)C/C=C/C(=O)Nc1ccc(C(=O)N2CCCC(Nc3ncc(Cl)c(-c4c[nH]c5ccccc45)n3)C2)cc1` (centres undefined) was run?
Its % of control is 83%.

How did the dTM [3] turn out when `CN(C(=O)c1cnn2cccnc12)c1cc2c(cc1N1CCOCC1)C(=O)N(C[C@@H](F)C(C)(C)O)C2` was run?
The dTM was -0.4 K.

Which % of control [4] does the source give for `Nc1cnc(N2CCc3cc(S(=O)(=O)Nc4c(F)cc(Cl)cc4F)cc(N4CCCC4=O)c32)nc1` [TP-020n] here?
The % of control was 100%.

With `CNC(=O)Nc1ccc(-c2nc(N3CC4CCC(C3)O4)c3cnn(C4CCC5(CC4)OCCO5)c3n2)cc1` as the molecule, how does the % of control [5] read?
Its % of control is 93%.

`N#Cc1cccc(-c2c[nH]c3ncnc(N4CCOCC4)c23)c1` was tested. Which % of inhibition [6] did it give?
Its % of inhibition is 19%.

With `Cc1cc([C@@H](C)Nc2ccccc2C(=O)O)c2nc(N3CCOCC3)cc(=O)n2c1` [AZD-6482] as the molecule, how does the % of control [7] read?
Its % of control is 100%.

`CC[C@@H]1[C@H](F)C(=O)N[C@@H]1COc1nccc2cc(C(N)=O)c(OC)cc12` [ZIMLOVISERTIB] was tested. Which % of inhibition [8] did it give?
The % of inhibition was -7.4%.

For `Cc1cnc(Nc2ccc(F)cc2Cl)nc1-c1c[nH]c(C(=O)N[C@H](CO)c2cccc(Cl)c2)c1`, which % of inhibition [9] is on record?
The % of inhibition was 0%.
